Experimental findings from US5686424A, “2-oxoethyl derivatives as immunosuppressants” (Miles Inc., priority 1995, dated 1997) are described below.

One test concerns the target FKBP (Homo sapiens, UniProt P62942). Kind of test: PPIase Inhibition Assay. Type of test: biochemical. Here is the method: 1) Inhibition of PPIase Activity
This assay follows in principle the procedure described in Kofron et al., 1991, Biochemistry 30:6127.
The three main reagents used are PPIase, a substrate for PPIase, and a selected inhibitor compound of the present invention. The basic principle behind this assay is the conversion of the cis isomer of the substrate to the trans form, which conversion is catalyzed by PPIase. Essentially, inhibition of this PPIase activity is measured for the selected compounds. A peptide chymotrypsin substrate containing a proline in the P2 position is only cleaved by chymotrypsin when the Phe-Pro bond is in the trans isomeric configuration. In the presence of excess chymotrypsin, all of the trans peptide isomers are cleaved within approximately five seconds, leaving only cis forms.
The cis peptide will spontaneously convert to the trans isomer at a slow rate. The cis to trans conversion is catalyzed by isomerases at a much faster rate than this spontaneous conversion. Proteins with PPIase activity are examples of such isomerases. After isomerization, the peptide is cleaved by chymotrypsin releasing p-nitroaniline which can be monitored at 390 nm. The rate of release is then calculated using a first order rate plus offset equation utilizing the ENZFITTER program (Leatherbarrow, BIOSOFT, Cambridge, United Kingdom).
In a plastic cuvette are added 950 ul of ice cold assay buffer (25 mM HEPES, pH 7.8, 100 mM NaCl), 10 uL of FKBP (2.5 uM in 10 mM Tris-Cl pH 7.5, 100 mM NaCl, 1 mM dithiothreitol), 25 ul of chymotrypsin (50 mg/ml in 1 mM HCl) and 10 ul of the test compound at various concentrations in dimethyl sulphoxide. The reaction is initiated by addition of 5 ul of substrate (Succinyl-Ala-Phe-Pro-Phe-para-nitroanilide, 5 mg/ml in 235 mM LiCl in trifluoroethanol).
The absorbance at 390 nm versus time is monitored for 90 sec using a Beckman DU70 spectrophotometer. The absorbance versus time data files are transferred to an IBM XT computer and the rate constants determined using the commercial enzfitter program. For each set of data, the uncatalyzed rate of conversion is measured and the uninhibited enzymatic rate determined. The data are expressed as % Activity remaining and are calculated as follows:
% Activity Remaining=(kobs -kuncat)/(kuninh
where kobs is the rate in the presence of a selected test compound, kuncat is the rate in the absence of enzyme, and kuninh is the rate in the presence of enzyme
Data was plotted as the velocity in the absence of the inhibitor (V-) divided by the velocity in the presence of inhibitor (V+) versus the inhibitor concentration. The IC50 can be determined following linear regression as the inhibitor concentration where

For another test, the system named is human T-cells. Kind of test: Suppression of Human T-Cell Proliferation Assay (PHA-stimulated, [3H]-thymidine incorporation). In kind it is cell-based. Particulars: read-out: IC50. From the text:
2) Human T Lymphocyte Inhibition
Inhibition of mitogen-induced T-cell proliferation can be used to profile immunosuppressive activity of test compounds. In the description of the assay which follows, mitogen-induced T-cell activation was used to test the inhibitory potencies of select compounds of the present invention.
In an assay similar to that described by Bradley in Mishell et al. (Eds.), 1980, Selected Methods in Cellular Immunology, pp 156-161, W. H. Freeman & Co., San Fransisco, Calif., T-cells were stimulated by incubation with phytohemagglutinin (PHA) which binds to cell surface molecules, including the T-cell receptor. This stimulation results in proliferation which can be measured by incorporation of [^3 H]-thymidine into cellular DNA.
The immunosuppressive properties of the compounds of the present invention can be determined by adding various concentrations of the compounds to these cultures and measuring the effect on T-cell proliferation.
Suppression of Human T-Cell Proliferation Assay
Fresh LeukoPaks were obtained from the New York Blood Center, New York, N.Y. The cells, including erythrocytes and leukocytes, were diluted with Hank's Balanced Salt Solution (HBSS) (GIBCO, Grand Island, N.Y.) and layered over Lymphoprep (Nycomed Pharma AS, Oslo, Norway) in sterile 50 ml conical centrifuge tubes. Lymphocytes were isolated at the Hank's/Nycomed interface after centrifugation at 2000×g, 4° C. for 15 min. The lymphocytes were washed with Minimal Essential Medium (GIBCO) containing 2% fetal bovine serum (FBS) (Sigma Chemical Co., St. Louis, Mo.), 1% HEPES buffer (GIBCO) and 1% Penicillin-Stretomycin solution (GIBCO).
T-cells were further purified essentially by sheep erythrocyte (SRBC) rosetting as described by Morimoto et al., 1983, J. Immunol. 130:157. The isolated lymphocytes were adjusted to 2×10^7 cells/ml and 5 ml aliquots of the cell suspension were incubated for 10 minutes at room temperature with 5 ml of a 5% SRBC (Cappel, Organon Technika Corp., West Chester, Pa.) suspension. The cells were gently pelleted by centrifugation at 300 rpm for 10 minutes, followed by a 1 hour incubation at room temperature to allow rosette formation. The cells were gently resuspended,layered over Lymphoprep and centrifuged for 30 minutes at 500×g. The pellet, containing rosetted T-cells and SRBC was treated with ice cold buffered ammonium chloride (GIBCO) to lyse the erythrocytes. T-cells were washed twice with HBSS.
Purified T-cells were resuspended at 2×10^6 cells/ml in complete culture medium composed of RPMI-1640 (Whittaker Bioproducts, Walkerville, Md.) with 10% FBS (Sigma), 2 mM L-glutamine (GIBCO), 1% Penicillin-Streptomycin (GIBCO) and 15 mM HEPES (GIBCO). In 96-well plates (Becton Dickinson, Lincoln Park, N.J.), 0.1 ml aliquots of T-cell suspension were mixed with 0.05 ml of 40 μg/ml PHA-M (Sigma). The compounds of this invention were dissolved in dimethylsulfoxide at 10 mM and various dilutions in complete medium were added in duplicate wells (0.05 ml/well). The plates were incubated at 37° C. in a humidified atmosphere of 5% carbon dioxide and 95% air for 72 hours.
Proliferation was assessed by measurement of [^3 H]-thymidine incorporation. During the last 6 hours of incubation, the cells were pulse labelled with 1 μCi/well of [^3 H]-thymidine (New England Nuclear, Boston, Mass.). The cells were harvested onto glass fiber paper using a plate harvester and the radioactivity incorporated into cellular DNA corresponding to individual wells was measured by standard liquid scintillation counting methods.
In general terms: Incorporation of labelled thymidine or its analogues reports DNA synthesis.

The mark [1] stands for this setting: concentration of inhibitor required for 50% inhibition of enzyme activity, FKBP, substrate Succinyl-Ala-Phe-Pro-Phe-para-nitroanilide, TABLE I.
[2] abbreviates: concentration inhibiting [3H]-thymidine incorporation of PHA-stimulated T-cells by 50%, 72 hours, TABLE 2.

Each structure is given as a SMILES string. Read-outs that look alike come from different tables or passages of the source.

FKBP, sequence (P62942 whole entry): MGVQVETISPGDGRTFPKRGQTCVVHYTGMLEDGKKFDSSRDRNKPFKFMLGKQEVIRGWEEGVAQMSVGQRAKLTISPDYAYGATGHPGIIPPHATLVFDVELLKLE

Broadly, the IC50 is the point on the concentration scale where inhibition reaches its midpoint. On to `CC[C@H](C)[C@@H](C(=O)NCc1ccccc1)N(C)C(=O)[C@@H]1CCCN1CC(=O)c1ccccc1` [Example 16, L-Isoleucine, N-Methyl-N-[1-(2-Phenyl-2-Oxoethyl)-L-Prolyl] Benzylamide], for which the IC50 against FKBP (setting [1]) and in the test with human T-cells (setting [2]) was > 50 µM in each case.

In the case of `CC[C@H](C)[C@H](NC(=O)[C@@H]1CCCCN1CC(=O)c1ccccc1)C(=O)NCc1ccccc1` [Example 17, L-Isoleucine, N-[1-(2-Phenyl-2-Oxoethyl)-L-Homoproline] Benzylamide], the values for the IC50 at FKBP (setting [1]) and with human T-cells (setting [2]) were < 50 µM and > 50 µM, respectively.

Take `O=C(CN1CCC[C@H]1C(=O)N[C@H](C(=O)NCc1ccccc1)c1ccccc1)c1ccccc1` [Example 18]: the IC50 against FKBP (setting [1]) was < 50 µM; in the test on human T-cells (setting [2]), 6 µM.

On to `CC[C@H](C)[C@H](NC(=O)[C@@H]1CCCN1C(C)C(=O)c1ccccc1)C(=O)NCc1ccccc1` (stereo partly drawn) [Example 19, L-Isoleucine, N-[1-(1-Methyl-2-Phenyl-2-Oxoethyl)-L-Prolyl] Benzylamide], for which the IC50 is < 50 µM at FKBP (setting [1]) and 18 µM in the test on human T-cells (setting [2]).

Take `CC[C@H](C)[C@H](NC(=O)[C@@H]1CCCN1CC(=O)c1cccc(OC)c1)C(=O)NCc1ccccc1` [Example 20, L-Isoleucine, N-[1-(2-(3-Methoxyphenyl)-2-Oxoethyl)-L-Prolyl] Benzylamide]: the IC50 against FKBP (setting [1]) was < 50 µM; in the test with human T-cells (setting [2]), < 11 µM.

Regarding `CC[C@H](C)[C@H](NC(=O)[C@@H]1CCCN1CC(=O)c1ccc(O)c(O)c1)C(=O)NCc1ccccc1` [Example 21, L-Isoleucine, N-[1-(2-(3,4-Dihydroxyphenyl)-2-Oxoethyl)-L-Prolyl] Benzylamide], the results for the concentration for half-maximal inhibition (IC50) against FKBP (setting [1]) and in the test with human T-cells (setting [2]) were < 50 µM and 34 µM, respectively.

Regarding `CC[C@H](C)[C@@H](C(=O)NCc1ccccc1)N(C)C(=O)[C@@H]1CCCN1CC(=O)OCc1ccccc1` [Example 22, L-Isoleucine, N-Methyl-N-[1-(2-Benzyloxy-2-Oxoethyl)-L-Prolyl] Benzylamide], the half-inhibitory concentration (IC50) was > 50 µM against FKBP (setting [1]) and 42 µM with human T-cells (setting [2]).

Take `CC[C@H](C)[C@H](NC(=O)[C@@H]1CCCCN1CC(=O)OCc1ccccc1)C(=O)NCc1ccccc1` [Example 23]: the half-maximal inhibitory concentration (IC50) against FKBP (setting [1]) was < 50 µM; in the test on human T-cells (setting [2]), 62 µM.

For `CC[C@H](C)[C@H](NC(=O)[C@@H]1CCCN1CC(=O)C(C)(C)C)C(=O)NCc1ccccc1` [Example 26, L-Isoleucine, N-[1-(2-tert-Butyl-2-Oxoethyl)-L-Proline] Benzylamlde], the IC50 at FKBP (setting [1]) is < 50 µM; in the test with human T-cells (setting [2]), 58 µM.

For `CC[C@H](C)[C@H](NC(=O)[C@@H]1CCCN1CC(=O)c1cc(OC)ccc1OC)C(=O)NCc1ccccc1` [Example 27, L-Isoleucine, N-[1-(2-(2,5-Dimethoxyphenyl)-2-Oxoethyl)-L-Prolyl] Benzylamide], the results for the IC50 at FKBP (setting [1]) and with human T-cells (setting [2]) were 12 µM and 20 µM, respectively.

On to `CC[C@H](C)[C@H](NC(=O)[C@@H]1CCCN1CC(=O)c1cccc(OCc2ccccc2)c1)C(=O)NCc1ccccc1` [Example 31, L-Isoleucine, N-[1-(2-(3-Benzyloxyphenyl)-2-Oxoethyl)-L-Prolyl] Benzylamlde], for which the IC50 against FKBP (setting [1]) was < 5 µM; in the test with human T-cells (setting [2]), 32 µM.

`CC[C@H](C)[C@H](NC(=O)[C@@H]1CCCN1CC(=O)c1ccc(C)cc1C)C(=O)NCc1ccccc1` [Example 32, L-Isoleucine, N-[1-(2-(2,4-Dimethylphenyl)-2-Oxoethyl)-L-Prolyl] Benzylamide]: the IC50 is < 5 µM against FKBP (setting [1]) and 41 µM with human T-cells (setting [2]).

In the case of `CC[C@H](C)[C@H](NC(=O)[C@@H]1CCCN1CC(=O)c1ccc(F)cc1)C(=O)NCc1ccccc1` [Example 33, L-Isoleucine, N-[1-(2-(4-Fluorophenyl)-2-Oxoethyl)-L-Prolyl] Benzylamide], the half-maximal inhibitory concentration (IC50) is 5 µM on FKBP (setting [1]) and 42 µM with human T-cells (setting [2]).

As for `CC[C@H](C)[C@H](NC(=O)[C@@H]1CCCN1CC(=O)c1ccc(Br)cc1)C(=O)NCc1ccccc1` [Example 34, L-Isoleucine, N-[1-(2-(4-Bromophenyl)-2-Oxoethyl)-L-Prolyl] Benzylamide], the results for the IC50 against FKBP (setting [1]) and in the test on human T-cells (setting [2]) were < 5 µM and 40 µM, respectively.

For the molecule `CC[C@H](C)[C@H](NC(=O)[C@@H]1CCCN1CC(=O)Nc1ccc(Cl)cc1Cl)C(=O)NCc1ccccc1` [Example 35, L-Isoleucine, N-[1-(2,4-Dichlorophenylcarbamoylmethyl)-L-Proline] Benzylamide], the half-maximal inhibitory concentration (IC50) is > 5 µM against FKBP (setting [1]) and 43 µM in the test with human T-cells (setting [2]).

For the molecule `CC[C@H](C)[C@H](NC(=O)[C@@H]1CCCN1CC(=O)c1ccc(-c2ccccc2)cc1)C(=O)NC(C)(C)C` [Example 52, L-Isoleucine, N-[1-(2-(Biphenyl-4-yl)-2-Oxoethyl)-L-Prolyl] tert-Butylamide], the IC50 was < 50 µM at FKBP and > 50 µM in the test on human T-cells.

`O=C(CN1CCC[C@H]1C(=O)N[C@@H](Cc1ccccc1)C(=O)NCc1ccccc1)c1ccc(-c2ccccc2)cc1` [Example 53, L-Phenylalanine, N-[1-(2-(Biphenyl-4-yl)-2-Oxoethyl)-L-Prolyl] Benzylamide]: the half-inhibitory concentration (IC50) against FKBP was > 50 µM; in the test on human T-cells, 16 µM.

In the case of `CC[C@H](C)[C@H](NC(=O)[C@@H]1CCCN1CC(=O)O)C(=O)NCc1ccccc1` [Example 71, L-Isoleucine, N-[1-(Carboxymethyl)-L-Prolyl] Benzylamide], the IC50 is > 5 µM at FKBP (setting [1]) and > 50 µM in the test on human T-cells (setting [2]).

In the case of `CC[C@H](C)[C@H](NC(=O)[C@@H]1CCCN1CC(=O)N1CCC2(CC1)OCCO2)C(=O)NCc1ccccc1` [Example 73, L-Isoleucine, N-[1-(2-(1,4-Dioxa-8-aza-spiro[4.5]dec-8-yl)-2-Oxoethyl)-L-Prolyl] Benzylamide], the IC50 is < 5 µM on FKBP (setting [1]) and > 50 µM with human T-cells (setting [2]).
